How the values were obtained:
Test in all cases: relative viability (nuclei count vs DMSO), 5 days (fraction); higher = more cells survive
[1] = compound: CC1=NN=C(O1)C2=NN=C(C=C2)N3CCC(CC3)OC4=C(C=CC(=C4)F)Cl + CC(=O)Nc1cccc(-n2c(=O)n(C3CC3)c(=O)c3c(Nc4ccc(I)cc4F)n(C)c(=O)c(C)c32)c1 [Trametinib] (partner 0.02 µM)
In short: (§1)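 Medians of duplicate plates are given as relative viability. That measure is the nuclei count in treated wells divided by the count in vehicle wells. Counts were taken on 4× images of lung cancer cell lines in 1536-well plates, 5 days after pin-tool dosing the day after seeding with one drug alone or a fixed anchor-drug dose plus five library-drug doses (not always all listed) in √10 steps.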

[2] = compound: CC1=NN=C(O1)C2=NN=C(C=C2)N3CCC(CC3)OC4=C(C=CC(=C4)F)Cl + O=C(CCCCCCC(=O)Nc1ccccc1)NO [Vorinostat] (partner 1 µM)
In short: as §1

Tosedostat + Phenformin = compound: CC(C)C[C@@H](C(=O)N[C@H](C(=O)OC1CCCC1)c1ccccc1)[C@H](O)C(=O)NO [Tosedostat] + N=C(N)NC(=N)NCCc1ccccc1 [Phenformin] (partner 250 µM)
In short: as §1

[3] = compound: CC1=NN=C(O1)C2=NN=C(C=C2)N3CCC(CC3)OC4=C(C=CC(=C4)F)Cl + CS(=O)(=O)N1CCN(Cc2cc3nc(-c4cccc5[nH]ncc45)nc(N4CCOCC4)c3s2)CC1 [Pictilisib] (partner 1 µM)
In short: as §1

Cell Line	relative viability ([1]; first compound 0.253 µM)	relative viability ([1]; first compound 0.8 µM)	relative viability ([1]; first compound 2.53 µM)	relative viability ([1]; first compound 8 µM)	relative viability ([2]; first compound 0.253 µM)	relative viability ([2]; first compound 0.8 µM)	relative viability ([2]; first compound 2.53 µM)	relative viability ([2]; first compound 8 µM)	relative viability (Tosedostat + Phenformin; first compound 0.02 µM)	relative viability (Tosedostat + Phenformin; first compound 0.06325 µM)	relative viability (Tosedostat + Phenformin; first compound 0.2 µM)	relative viability (Tosedostat + Phenformin; first compound 0.6325 µM)	relative viability (Tosedostat + Phenformin; first compound 2 µM)	relative viability ([3]; first compound 0.253 µM)	relative viability ([3]; first compound 0.8 µM)	relative viability ([3]; first compound 2.53 µM)	relative viability ([3]; first compound 8 µM)
NCI-H1993	0.453	0.523	0.655	0.593	0.681	0.763	0.766	0.762	0.514	0.507	0.459	0.497	0.499	0.742	0.78	0.821	0.789
NCI-H2009	0.257	0.23	0.233	0.174	0.428	0.343	0.422	0.36	0.562	0.477	0.477	0.468	0.419	0.711	0.618	0.659	0.637
NCI-H2023	0.36	0.419	0.388	0.301	0.357	0.268	0.309	0.322	0.397	0.38	0.382	0.351	0.359	0.22	0.27	0.308	0.18
NCI-H2085	0.326	0.514	0.423	0.363	0.649	0.557	0.687	0.58	0.55	0.646	0.713	0.673	0.682	0.387	0.471	0.452	0.39
NCI-H2087	0.167	0.196	0.244	0.175	0.242	0.376	0.408	0.291	0.473	0.413	0.329	0.28	0.22	0.769	0.604	0.795	0.66
NCI-H2126	0.528	0.532	0.504	0.486	0.754	0.651	0.642	0.631	0.492	0.535	0.477	0.489	0.462	0.433	0.478	0.441	0.412
NCI-H2170	0.377	0.392	0.368	0.356	0.449	0.366	0.473	0.362	0.409	0.424	0.381	0.396	0.408	0.282	0.335	0.368	0.274
NCI-H2228	0.373	0.41	0.548	0.612	0.454	0.586	0.391	0.542	0.334	0.266	0.291	0.244	0.175	0.297	0.313	0.538	0.404
NCI-H2347	0.234	0.288	0.256	0.246	0.629	0.597	0.428	0.501	0.384	0.439	0.55	0.267	0.275	0.024	0.53	0.422	0.753

Source: the supplement of paper PMC10307832
